Source: patent publication US20240058450A1, “BCL-XL Inhibitory Compounds Having Low Cell Permeability and Antibody Drug Conjugates Including the Same” (AbbVie Inc., priority 2014, published 2024)
Like-named read-outs stand apart in the source and are kept apart here.

Tests used:
Bcl-xL = Bcl-xL (Homo sapiens, UniProt Q07817); test: Time Resolved-Fluorescence Resonance Energy Transfer (TR-FRET) binding assay, competition with probe F-Bak
Method in brief: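 TR-FRET binding assay run at room temperature for 2 h after mixing compound with Bcl-xL protein, F-Bak probe and Tb-labelled antibody. Test compounds diluted from a 2× 50 μM stock. Ki values derived via Wang's equation from 520/495 nm emission under 340 nm excitation, in the absence of serum or with 1% HS.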

[1] = test system: permeabilized Bcl-xL dependent Molt-4 cells; test: Cytochrome C release in selectively (digitonin) permeabilized Molt-4 cells; assay type: cell-based, human; conditions: 4 h treatment, read-out: Molt-4 Permeabilized Cyt C Release
Text: The permeabilization of the mitochondrial outer membrane to release proteins from the intermembrane space into the cytosol is a pivotal event in the process of apoptosis. Specifically, the release of cytochrome C triggers the formation of the apoptosome which, in turn, results in caspase activation and other events that will commit the cell to undergo programmed cell death (Goldstein el al., 2005, Cell Death and Differentiation 12:453). The process of mitochondrial outer membrane permeabilization (MOMP) is controlled by the Bcl-2 family members. It is promoted by the multidomain pro-apoptotic proteins Bax and Bak which, upon activation, oligomerize on the outer mitochondrial membrane and form pores to ultimately release cytochrome C. This action is antagonized by the antiapoptotic members, including Bcl-2 and Bcl-xL. Compounds that are capable of inhibiting Bcl-2 or Bcl-xL, for example, in cells that depend upon these proteins for survival, can cause activation of Bax and or Bak, MOMP, release of cytochrome C and the mentioned downstream steps in the apoptotic process. This process of cytochrome C release can be measured in cells via Western blot of both mitochrondrial and cytosolic fractions, and can be used a proxy measurement of apoptosis in cells.
As a means of detecting the ability of a Bcl-xL inhibitor with low cell-permeability to cause release of cytochrome C, the cells can be treated with an agent that causes selective pore formation in the plasma membrane, but not the mitochondrial membrane. Specifically, the cholesterol/phospholipid ratio is much higher in the plasma membrane than the mitochondrial membrane. […] This agent forms insoluble complexes with cholesterol leading to the segregation of cholesterol from its normal phospholipid binding sites. This action, in turn, leads to the formation of holes about 40-50 Å wide in the lipid bilayer. Once the plasma membrane is permeabilized, cytosolic components able to pass over digitonin-formed holes can be washed out, including the cytochrome C that was released from mitochondria to cytosol in the apoptotic cells ((Campos, 2006, Cytometry A 69(6):515-523)).
To determine if Bcl-xL inhibitors were inducing cell death through apoptosis, cytochrome C release was measured in Bcl-xL dependent Molt-4 cells following treatment Specifically, 1×10^6 cells were treated for 4 h (37° C., 5% CO2) with the test compounds in half-log dilutions starting at 3.0 μM and ending at 0.01 μM. Cells were then processed as described in Chen et al., 2011, Mol. Cancer Ther. 10:2340-2350 (the Bcl-2/Bcl-X(L)/Bcl-w inhibitor, navitoclax, enhances the activity of chemotherapeutic agents in vitro and in vivo.).

[2] = test system: Molt-4 human acute lymphoblastic leukemia cells; test: Molt-4 cell viability assay (CellTiter-Glo, 48 hours, 10% HS); assay type: cell-based; conditions: non-permeabilized cells
Method in brief: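 Cells were seeded at 12,500 per well in medium with 10% human serum and exposed to a 3-fold compound dilution series from 10 μM to 0.0005 μM. After 48 h, viable cells were quantified by CellTiter-Glo luminescence. Each concentration was run in duplicate on at least 3 occasions.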

[3] = in the presence of 1% HS, read-out: Bcl-xL Binding Ki (nM, 1% HS)
[4] = without HS, read-out: Bcl-xL Binding Ki

Bcl-xL, sequence (Q07817 whole entry): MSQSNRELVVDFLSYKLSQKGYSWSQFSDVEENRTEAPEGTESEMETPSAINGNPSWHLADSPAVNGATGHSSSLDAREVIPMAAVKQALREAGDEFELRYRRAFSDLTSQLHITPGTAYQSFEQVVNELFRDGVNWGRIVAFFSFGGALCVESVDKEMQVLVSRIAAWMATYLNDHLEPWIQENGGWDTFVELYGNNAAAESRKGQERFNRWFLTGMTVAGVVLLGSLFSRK

SMILES | Ki (Bcl-xL; [3]) [nM] | Ki (Bcl-xL; [4]) [nM] | EC50 [1] [nM] | EC50 ([1]; Homo sapiens, MOLT-4, 4 h) [nM] | EC50 [2] [nM] | EC50 ([2]; Homo sapiens, MOLT-4, 48 h) [nM]
Cc1c(-c2ccc(N3CCc4cccc(C(=O)Nc5nc6ccccc6s5)c4C3)nc2C(=O)O)cnn1CC12CC3(C)CC(C)(C1)CC(OCCN(CCOCCOCCN)Cc1ccc(CC4O[C@H](C(=O)O)[C@@H](O)[C@H](O)[C@H]4O)cc1)(C3)C2 (stereo partly drawn) [Example 1.18, 6-{4-[({2-[2-(2-aminoethoxy)ethoxy]ethyl}[2-({3-[(4-{6-[8-(1,3-benzothiazol-2-ylcarbamoyl)-3,4-dihydroisoquinolin-2 (1H)-yl]-2-carboxypyridin-3-yl}-5-methyl-1H-pyrazol-1-yl)methyl]-5,7-dimethyltricyclo[3.3.1.1^3,7]dec-1-yl}oxy)ethyl]amino)methyl]benzyl}-2,6-anhydro-L-gulonic acid] | 1.38 | < 0.001 | < 0.5 | 1 to 5 | 3330 | 
Cc1c(-c2ccc(N3CCc4cccc(C(=O)Nc5nc6ccccc6s5)c4C3)nc2C(=O)O)cnn1CC12CC3(C)CC(C)(C1)CC(OCCN(CCCP(=O)(O)O)C1CCNCC1)(C3)C2 [Example 1.26, 6-[8-(1,3-benzothiazol-2-ylcarbamoyl)-3,4-dihydroisoquinolin-2 (1H)-yl]-3-{1-[(3,5-dimethyl-7-{2-[(3-phosphonopropyl)(piperidin-4-yl)amino]ethoxy}tricyclo[3.3.1.1^3,7]dec-1-yl)methyl]-5-methyl-1H-pyrazol-4-yl}pyridine-2-carboxylic acid] | 0.11 | < 0.001 |  | < 0.5 |  | 2330
Cc1c(-c2ccc(N3CCc4cccc(C(=O)Nc5nc6ccccc6s5)c4C3)nc2C(=O)O)cnn1CC12CC3(C)CC(C)(C1)CC(OCCN(CCNCCC(=O)O)CCS(=O)(=O)O)(C3)C2 [Example 1.38, 6-[8-(1,3-benzothiazol-2-ylcarbamoyl)-3,4-dihydroisoquinolin-2 (1H)-yl]-3-{1-[(3-{2-[{2-[(2-carboxyethyl)amino]ethyl}(2-sulfoethyl)amino]ethoxy}-5,7-dimethyltricyclo[3.3.1.1^3,7]dec-1-yl)methyl]-5-methyl-1H-pyrazol-4-yl}pyridine-2-carboxylic acid] | 0.203 | < 0.001 |  | < 0.5 |  | 245
Cc1c(-c2ccc(N3CCc4cccc(C(=O)Nc5nc6ccccc6s5)c4C3)nc2C(=O)O)cnn1CC12CC3(C)CC(C)(C1)CC(OCCNCCCP(=O)(O)O)(C3)C2 [Example 1.14, 6-[8-(1,3-benzothiazol-2-ylcarbamoyl)-3,4-dihydroisoquinolin-2 (1H)-yl]-3-{1-[(3,5-dimethyl-7-{2-[(3-phosphonopropyl)amino]ethoxy)tricyclo[3.3.1.1^3,7]dec-1-yl)methyl]-5-methyl-1H-pyrazol-4-yl}pyridine-2-carboxylic acid] | 0.18 | < 0.001 |  | < 0.5 |  | 415
Cc1c(-c2ccc(N3CCc4c(OCCNCCS(=O)(=O)O)ccc(C(=O)Nc5nc6ccccc6s5)c4C3)nc2C(=O)O)cnn1CC12CC3(C)CC(C)(C1)CC(OCCN(C)CCS(=O)(=O)O)(C3)C2 [Example 1.47, 6-[8-(1,3-benzothiazol-2-ylcarbamoyl)-5-{2-[(2-sulfoethyl)amino]ethoxy}-3,4-dihydroisoquinolin-2 (1H)-yl]-3-{1-[(3,5-dimethyl-7-{2-[methyl(2-sulfoethyl)amino]ethoxy}tricyclo[3.3.1.1^3,7]dec-1-yl)methyl]-5-methyl-1H-pyrazol-4-yl}pyridine-2-carboxylic acid] | 0.0294 | 0.006 |  | < 0.5 |  | 197
Cc1c(-c2ccc(N3CCc4cccc(C(=O)Nc5nc6ccccc6s5)c4C3)nc2C(=O)O)cnn1CC12CC3(C)CC(C)(C1)CC(OCCOCCNCc1ccc(O[C@@H]4O[C@H](CO)[C@@H](O)[C@@H](O)[C@H]4O)cc1)(C3)C2 [Example 1.10, 3-[1-({3-[2-(2-{[4-(beta-D-allopyranosyloxy)benzyl]amino}ethoxy)ethoxy]-5,7-dimethyltricyclo[3.3.1.1^3,7]dec-1-yl}methyl)-5-methyl-1H-pyrazol-4-yl]-6-[8-(1,3-benzothiazol-2-ylcarbamoyl)-3,4-dihydroisoquinolin-2 (1H)-yl]pyridine-2-carboxylic acid] | 0.027 | < 0.001 |  | < 0.5 |  | 74
Cc1c(-c2ccc(-c3ccc4c(c3)N(C(=O)Nc3nc5ccccc5s3)CCC4)nc2C(=O)O)cnn1CC12CC3(C)CC(C)(C1)CC(OCCNCCS(=O)(=O)O)(C3)C2 [Example 1.24, 6-[1-(1,3-benzothiazol-2-ylcarbamoyl)-1,2,3,4-tetrahydroquinolin-7-yl]-3-{1-[(3,5-dimethyl-7-{2-[(2-sulfoethyl)amino]ethoxy}tricyclo[3.3.1.1^3,7]dec-1-yl)methyl]-5-methyl-1H-pyrazol-4-yl}pyridine-2-carboxylic acid] | 0.074 | < 0.001 |  | < 0.5 |  | 390
Cc1c(-c2ccc(-c3ccc4c(c3)N(C(=O)Nc3nc5ccccc5s3)CCC4)nc2C(=O)O)cnn1CC12CC3(C)CC(C)(C1)CC(OCCNCCP(=O)(O)O)(C3)C2 [Example 1.20, 6-[1-(1,3-benzothiazol-2-ylcarbamoyl)-1,2,3,4-tetrahydroquinolin-7-yl]-3-{1-[(3,5-dimethyl-7-(2-[(2-phosphonoethyl)amino]ethoxy}tricyclo[3.3.1.1^3,7]dec-1-yl)methyl]-5-methyl-1H-pyrazol-4-yl}pyridine-2-carboxylic acid] | 0.47 | < 0.001 |  | < 0.5 |  | 774
Cc1c(-c2ccc(N3CCc4cccc(C(=O)Nc5nc6ccccc6s5)c4C3)nc2C(=O)O)cnn1CC12CC3(C)CC(C)(C1)CC(OCCNCCCS(=O)(=O)O)(C3)C2 [Example 1.5, 6-[8-(1,3-benzothiazol-2-ylcarbamoyl)-3,4-dihydroisoquinolin-2 (1H)-yl]-3-{1-[(3,5-dimethyl-7-{2-[(3-sulfopropyl)amino]ethoxy}tricyclo[3.3.1.1^3,7]dec-1-yl)methyl]-5-methyl-1H-pyrazol-4-yl}pyridine-2-carboxylic acid] | 0.26 | 0.019 |  | 0.5 to 1 |  | 189
Cc1c(-c2ccc(N3CCc4cccc(C(=O)Nc5nc6ccccc6s5)c4C3)nc2C(=O)O)cnn1CC12CC3(C)CC(C)(C1)CC(OCCNCCP(=O)(O)O)(C3)C2 [Example 1.12, 6-[8-(1,3-benzothiazol-2-ylcarbamoyl)-3,4-dihydroisoquinolin-2 (1H)-yl]-3-{1-[(3,5-dimethyl-7-{2-[(2-phosphonoethyl)amino]ethoxy}tricyclo[3.3.1.1^3,7]dec-1-yl)methyl]-5-methyl-1H-pyrazol-4-yl}pyridine-2-carboxylic acid] | 0.08 | < 0.001 |  | < 0.5 |  | 389
Cc1c(-c2ccc(N3CCc4cccc(C(=O)Nc5nc6ccccc6s5)c4C3)nc2C(=O)O)cnn1CC12CC3(C)CC(C)(C1)CC(OCCNC(=O)[C@@H](N)CS(=O)(=O)O)(C3)C2 [Example 1.15, 6-[8-(1,3-benzothiazol-2-ylcarbamoyl)-3,4-dihydroisoquinolin-2 (1H)-yl]-3-{1-[(3,5-dimethyl-7-{2-[(3-sulfo-L-alanyl)amino]ethoxy}tricyclo[3.3.1.1^3,7]dec-1-yl)methyl]-5-methyl-1H-pyrazol-4-yl}pyridine-2-carboxylic acid] | 0.39 | 0.003 |  | 1 to 5 |  | 663
Cc1c(-c2ccc(N3CCc4cccc(C(=O)Nc5nc6cccnc6s5)c4C3)nc2C(=O)O)cnn1CC12CC3(C)CC(C)(C1)CC(OCCNCCS(=O)(=O)O)(C3)C2 [Example 1.22, 3-{1-[(3,5-dimethyl-7-{2-[(2-sulfoethyl)amino]ethoxy}tricyclo[3.3.1.1^3,7]dec-1-yl)methyl]-5-methyl-1H-pyrazol-4-yl}-6-[8-([1,3]thiazolo[5,4-b]pyridin-2-ylcarbamoyl)-3,4-dihydroisoquinolin-2 (1H)-yl]pyridine-2-carboxylic acid] | 7.11 | 0.006 |  | < 0.5 |  | > 10000
